In patent US6613793B2 (Dabur Research Foundation, priority 2001, dated 2003):
Like-named read-outs stand apart in the source and are kept apart here.

Tests used:
[1] = tested on: MCF7 breast; assay: MTT cytotoxicity assay, MCF7; type: cell-based; settings: Homo sapiens; for IC50: 24 h, MCF7 Breast, read-out: ED50 values of cytotoxicity
Method: (§1) Briefly, a three day MTT cytotoxicity assay was performed, which is based on the principle of uptake of MTT (3-(4,5-dimethylthiazol-2-yl)-2,5-diphenyl tetrazolium bromide), a tetrazolium salt, by the metabolically active cells where it is metabolized by active mitochondria into a blue colored formazan product that is read spectrophotometrically. MTT was dissolved in phosphate buffered saline with a pH of 7.4 to obtain an MTT concentration of 5 mg/ml; the resulting mixture was filtered through a 0.22 micron filter to sterilize and remove a small amount of insoluble residue. For each type of tumor cell, 20,000 to 50,000 cells were seeded in a 96-well culture plate and incubated with the combination in a CO2 incubator for 24 hours. […] After incubating for one hour, the plate was read spectrophotometrically at 540 nm and the percentage cytotoxicity calculated.

[2] = tested on: Swiss albino mice; type: in vivo; settings: oral; for safe dose: Swiss albino mice weighing 25 grams; for Mortality: observed 15 days
[3] = tested on: ECV304 cells; assay: Inhibition of tube-like-structure (TLS) formation on Matrigel; type: cell-based; parameters: key: significant (++); marginal (+); no effect (−); settings: 24 hours
Method: Matrigel (70 ul) was placed into each well of a 96-well culture plate at 4° C. and was allowed to polymerize by incubation at 37° C. for 30 min. ECV304 (1×10^4) cells were seeded on the Matrigel in 200 ul DMEM supplemented with 10% FBS. The compounds to be tested were added to marked wells at selected non-cytotoxic concentrations and incubated at 37° C. for 24 hours. Five different phase-contrast microscopic fields (4X) were viewed and tube-like structure formation was evaluated qualatively by observing formation of lumen (sprouting) and extent of formation of branches and loops by sprouts (intususception). The inhibition of TLS caused by the addition of the test compound was recorded as significant (++), marginal (+), or no effect (−) as compared to the control TLS formation. A summary of the results is given below in the form of a table indicating the concentrations tested.

[4] = tested on: 293 Kidney; assay: MTT cytotoxicity assay, 293; type: cell-based; settings: Homo sapiens, 24 h, read-out: ED50 values of cytotoxicity
Method: as §1

[5] = tested on: PA 1 Ovary; assay: MTT cytotoxicity assay, PA 1; type: cell-based; settings: Homo sapiens, 24 h; PA 1 Ovarian; read-out: ED50 values of cytotoxicity
Method: as §1

[6] = tested on: PTC (Colon) Tumor Xenografts; assay: Antitumor activity on PTC (Colon) tumor xenografts in nude mice; type: in vivo, Balb/c athymic mice; settings: 10 mg orally once a day for 15 days; at the end of treatment
Method: PTC (colon) tumor xenografts were initiated in Balb/c athymic mice by subcutaneous inoculation of a single cell suspension of PTC cells (15×10^6 cells/100 μL). […] The anti-tumor activity was monitored by measuring tumor volumes every fourth day and calculating volumes using the formula 0.4×W^2×L(W=smaller dia, L=larger dia,).

[7] = tested on: KB Oral; assay: MTT cytotoxicity assay, KB; type: cell-based; settings: Homo sapiens, 24 h, read-out: ED50 values of cytotoxicity
Method: as §1

[8] = tested on: MOLT 4 Leukemia; assay: MTT cytotoxicity assay, MOLT 4; type: cell-based; settings: Homo sapiens, 24 h, read-out: ED50 values of cytotoxicity
Method: as §1

[9] = tested on: L132 Lung; assay: MTT cytotoxicity assay, L132; type: cell-based; settings: Homo sapiens, 24 h, read-out: ED50 values of cytotoxicity
Method: as §1

[10] = tested on: Miapaca2 Pancreas; assay: MTT cytotoxicity assay, Miapaca2; type: cell-based; settings: Homo sapiens, MIA PaCa-2, 24 h, read-out: ED50 values of cytotoxicity
Method: as §1

[11] = tested on: Glyceraldehyde 3 phosphate dehydrogenase; assay: Glyceraldehyde 3 phosphate dehydrogenase enzyme activity assay; type: biochemical
Method: The activity of Glyceraldehyde 3 phosphate dehydrogenase enzyme was assayed by the methods detailed earlier. (Krebs E, 1955, Methods in Enzymology, 1 407 and Velick S, 1955, Methods in Enzymology, 1, 401). To monitor the reaction, the increase in absorbance at 340 nm due to the formation of NADH from NAD was recorded at 15 seconds intervals, the values remaining almost linear for 3 minutes. The assay mixture was in a total volume of 1.5 ml containing 1.3 ml of Sodium pyrophosphate buffer (0.015M; pH 8.5), containing sodium arsenate (0.03M), 0.05 ml of NAD (7.5 mM), 0.05 ml of DTT (0.1M) and 0.05 ml of DL- glyceraldehyde 3 phosphate (7 mM). The enzyme was diluted 1:100 immediately prior to use in Sodium pyrophosphate buffer (0.015M) (pH 8.5) containing sodium arsenate (0.03M). The reaction was initiated by the addition of 0.05 ml of glyceraldehyde 3 phosphate dehydrogenase enzyme. The test mixture contained methyl glyoxal or its conjugates in concentrations ranging from 0.5 mM to 5 mM. Methyl glyoxal and its conjugates were dissolved in 2.5% ethanol and water. The control experiments were carried out in the absence of the enzyme or the substrate under identical conditions. One unit of activity of glyceraldehyde 3 phosphate dehydrogenase is defined as the amount of enzyme required to convert lumol of NAD to NADH per minute under conditions defined as above.

[12] = tested on: DU145 Prostate; assay: MTT cytotoxicity assay, DU145; type: cell-based; settings: Homo sapiens, DU-145, 24 h, read-out: ED50 values of cytotoxicity
Method: as §1

[13] = tested on: INT 407 Intestine; assay: MTT cytotoxicity assay, INT 407; type: cell-based; settings: Homo sapiens, 24 h, read-out: ED50 values of cytotoxicity
Method: as §1

[14] = tested on: PTC Colon; assay: MTT cytotoxicity assay, PTC; type: cell-based; settings: Homo sapiens, 24 h, read-out: ED50 values of cytotoxicity
Method: as §1

[15] = tested on: U87MG Glioblastoma; assay: MTT cytotoxicity assay, U87MG; type: cell-based; settings: Homo sapiens, U-87 MG, 24 h, read-out: ED50 values of cytotoxicity
Method: as §1

[16] = tested on: Hep2 Larynx; assay: MTT cytotoxicity assay, Hep2; type: cell-based; settings: Homo sapiens, HEp-2, 24 h, read-out: ED50 values of cytotoxicity
Method: as §1

[17] = dosage level 2.5X (X=400 mg/kg B.Wt.)
[18] = dosage level 3.5X (X=400 mg/kg B.Wt.)
[19] = dosage level 5X (X=400 mg/kg B.Wt.)
[20] = dosage level 7.5X (X=400 mg/kg B.Wt.)
[21] = dosage level 10X (X=400 mg/kg B.Wt.)

| Structure (SMILES) | safe dose [2] | Mortality [2, 17] | Mortality [2, 18] | Mortality [2, 19] | Mortality [2, 20] | Mortality [2, 21] | TLS Inhibition (Qualitative) ([3]; 1.2 mM) | IC50 [4] | IC50 [5] | IC50 [7] | Percent Inhibition Of Glyceraldehyde 3 Phosphate Dehydrogenase Activity ([11]; 0.5 mM) | Percent Inhibition Of Glyceraldehyde 3 Phosphate Dehydrogenase Activity ([11]; 1 mM) | Percent Inhibition Of Glyceraldehyde 3 Phosphate Dehydrogenase Activity ([11]; 5 mM) | further results |
| --- | --- | --- | --- | --- | --- | --- | --- | --- | --- | --- | --- | --- | --- | --- |
| COC(=O)C1CCC(=O)N1C(O)C(C)=O (stereo not shown) [MGC-1, N-(1-Hydroxy-2-ketopropyl)-methylpyroglutamate] |  |  |  |  |  |  |  |  |  |  |  |  |  | cytotoxicity at 1000 µM ([1]; MCF7, 1.0 mM, read-out: Percent cytotoxicity): 0%; cytotoxicity at 5000 µM ([1]; MCF7, 5 mM, read-out: Percent cytotoxicity): 12.9 ± 2.1% |
| CCCCOC(=O)C1CCC(=O)N1C(O)C(C)=O (stereo not shown) [MGC-2, N-(1-Hydroxy-2-ketopropyl)-butylpyroglutamate] | 75 mg | 0/10 | 0/10 | 0/10 | 0/10 | 10/10 | + | 2000 ± 800 µM |  |  |  |  |  |  |
| CC(=O)C(O)N1C(=O)CCC1C(=O)OCc1ccccc1 (stereo not shown) [MGC-3, N-(1-Hydroxy-2-ketopropyl)-benzylpyroglutamate] |  |  |  |  |  |  |  |  | 1800 ± 600 µM |  |  |  |  | TLS Inhibition (Qualitative) ([3]; 2 mM): +; TLS Inhibition (Qualitative) ([3]; 2.5 mM): ++ |
| COC(=O)C1CCC(=O)N1C(OC(C)=O)C(C)=O (stereo not shown) [MGC-4, N-(1-Acetoxy-2-ketopropyl)-methylpyroglutamate] | 100 mg | 0/10 | 0/10 | 0/10 | 0/10 | 0/10 | − |  |  |  |  |  |  | average tumor volume as compared to average tumor volume of untreated control tumors [6]: 41% |
| CCCCOC(=O)C1CCC(=O)N1C(OC(C)=O)C(C)=O (stereo not shown) [MGC-5, N-(1-Acetoxy-2-ketopropyl)-butylpyroglutamate] |  |  |  |  |  |  | + | 1900 ± 700 µM |  | 2000 ± 700 µM |  |  |  |  |
| CC(=O)OC(C(C)=O)N1C(=O)CCC1C(=O)OCc1ccccc1 (stereo not drawn) [MGC-6, N-(l-acetoxy-2-ketopropyl)-benzylpyroglutamate] | 75 mg | 0/10 | 0/10 | 0/10 | 0/10 | 10/10 | − | 2900 ± 1000 µM | 1400 ± 200 µM | 2950 ± 300 µM | 28.3 ± 2.5% | 29.4 ± 3.0% | 30.1 ± 4.0% | IC50 [8]: 1300 ± 300 µM; IC50 [9]: 3800 ± 1000 µM; IC50 [10]: 3900 ± 1000 µM; IC50 [1]: > 5000 µM; IC50 [12]: 1900 ± 1000 µM; IC50 [13]: > 5000 µM; IC50 [14]: 1600 ± 400 µM; IC50 [15]: 4780 ± 600 µM; IC50 [16]: 1200 ± 200 µM |
| CCOC(=O)C1CCC(=O)N1C(O)C(C)=O (stereo not shown) [MGC-7, N-(1-Hydroxy-2-ketopropyl)-ethylpyroglutamate] | 100 mg | 0/10 | 0/10 | 0/10 | 0/10 | 0/10 |  |  |  |  |  |  |  |  |
| CCOC(=O)C1CCC(=O)N1C(OC(C)=O)C(C)=O (stereo not shown) [MGC-8, N-(1-Acetoxy-2-ketopropyl)-ethylpyroglutarnate] | 100 mg | 0/10 | 0/10 | 0/10 | 0/10 | 0/10 |  |  | 1800 ± 700 µM | 1950 ± 800 µM | 32.8 ± 1.2% | 40.1 ± 2.2% | 38.2 ± 1.9% | IC50 [8]: 2900 ± 500 µM; IC50 [9]: > 5000 µM; IC50 [1]: 2400 ± 1200 µM; IC50 [12]: 1300 ± 300 µM; IC50 [13]: 550 ± 300 µM; IC50 [14]: 2750 ± 400 µM; IC50 [15]: 1880 ± 700 µM; IC50 [16]: 2100 ± 600 µM |
| CC(=O)C=O [Methylglyoxal, reference compound] |  |  |  |  |  |  |  |  |  |  | 15 ± 4% | 18 ± 3.4% | 20 ± 4.0% | Glyceraldehyde 3 phosphate dehydrogenase enzyme activity inhibition (in words) ([11]; concentration ranging from 0.5 mM to 5 mM): inhibited significantly; average tumor volume as compared to average tumor volume of untreated control tumors [6]: 50%; TLS Inhibition (Qualitative) ([3]; 0.5 mM): +; TLS Inhibition (Qualitative) ([3]; 0.8 mM): +; TLS Inhibition (Qualitative) ([3]; 1 mM): ++ |
